Laboratory results as given in US20240091149A1, “COMPOSITIONS AND METHODS FOR IMPROVING GASTROINTESTINAL ABSORPTION OF ELECTROLYTES” (IGH NATURALS, INC., priority 2020, published 2024).

Tested on: HT-29-MTX intestinal cells
Assay: IL-10 secretion by intestinal cells
Assay type: cell-based
Settings: cells treated with cisplatin alone; FIG. 3
Source text: IL-10 secretion peaked between 24-48 hrs and preceded mucin secretion (72-96 hr).

N.N.[Cl][Pt][Cl] [cisplatin]
IL-10 secretion: secreted more IL-10
